Assay results reported in US6342219B1 (Board of Regents, The University of Texas System, priority 1999, dated 2002).

Tests used:
[1] = system: VEGF alone or VEGF associated with sFlk-1 (VEGF:Flk-1); test: Indirect and capture ELISA: reactivity with VEGF alone or VEGF:Flk-1; assay type: binding, human VEGF; mouse Flk-1
Protocol: The Flk-1/SEAP protein was produced and purified as described by Tessler et al. (1994). Basically, the extracellular domain of Flk-1 (sFlk-1) was produced in Spodoptera frugiperda (Sf9) cells and purified by immunoaffinity techniques utilizing a monoclonal anti-Flk-1 antibody (1A8). sFlk-1 was then biotinylated and bound on avidin-coated plates.
The reactivity was determined as described above for the initial screening.
A capture ELISA was also developed. In the capture ELISA, microtiter plates were coated overnight at 4° C. with 100 ng of the indicated antibody. […] Streptavidin conjugated to peroxidase (Kirkegaard & Perry Laboratories, Inc.), diluted 1:2000, was used as a second layer and developed.

[2] = system: denatured VEGF121 and VEGF165; test: Western blot analysis; assay type: binding, human; settings: reducing and non-reducing conditions
Protocol: The nitrocellulose membrane was blocked using Sea-Block PP82-41 (East Coast Biologics, Berwick, Me.), and probed with primary antibodies using a mini-blotter apparatus (Immunetics, Cambridge, Mass.). The membranes were developed after incubation with the appropriate peroxidase-conjugated secondary antibody by ECL enhanced chemiluminescence.
Western blot analyses of anti-VEGF antibodies were conducted by separating VEGF165 in the presence of 5% FCS using SDS-PAGE on a 12% gel and analyzing by a standard western blotting protocol using ECL detection. The primary antibodies were incubated with the nitrocellulose membrane using a multi-lane mini-blotter apparatus.

[3] = system: human tumors from cancer patients; test: Immunohistochemistry, endothelial cell staining, human tumors; assay type: binding; set-up: key: −, negative; +/−, very weak; 1+, weak; 2+, moderate; 3+, strong; 4+, very strong; settings: acetone fixed frozen sections
Protocol: (§1) Tumors were snap frozen in liquid nitrogen and stored at −70° C. Frozen samples of tumor specimens from patients were obtained from the National Cancer Institute Cooperative Human Tissue Network (Southern Division, Birmingham, Ala.). Immunohistochemistry was performed as described by Burrows et al. (1995).

[4] = system: mouse VEGF in mouse 3LL Lewis Lung carcinoma tumor sections; test: Immunohistochemistry, endothelial cell staining, mouse 3LL tumor; assay type: binding; set-up: key: −, negative; +/−, very weak; 1+, weak; 2+, moderate; 3+, strong; 4+, very strong; settings: acetone fixed frozen sections
Protocol: as §1
Tumors examined through immunohistochemistry were human tumors of various types from cancer patients, transplantable human tumor xenografts of various types grown in mice, guinea pig Line 10 tumor grown in guinea pig, and mouse 3LL tumor grown in mice (see legend to Table 3 for details).

[5] = system: VEGF-mediated growth of ABAE cells; test: Endothelial cell growth assay (MTS); assay type: cell-based, bovine
Protocol: ABAE cells were grown in the presence of the various indicated antibodies and 0.5 nM VEGF. Growth after 4 days was determined calorimetrically by the enzymatic conversion of MTS (Owen's reagent) to a yellow formazan. […] Background was determined by growing cells without VEGF or antibody and was subtracted from the control and sample wells.
Adult bovine aortic endothelial (ABAE) cells were plated into 96-well tissue culture plates at 1500 cells/well and grown in the presence of 0.5 nM human VEGF with the addition of the various sample and control antibodies. Control wells received media with or without VEGF.
After 4 days of incubation, the cells were quantified by an MTS (3-(4,5-dimethylthiazol-2-yl)-5-(3-carboxylmethoxyphenyl)-2-(4-sulfophenyl)-2H-tetrazolium, inner salt) conversion assay, where MTS conversion to a formazan is proportional to cell number and can be followed by absorbance at 490 nm (Cell Titer 96 AQueous One Solution Cell Proliferation Assay, Promega, Madison, Wis.). The assay was performed according to the manufacturer's instructions.
Cell growth was estimated by subtracting the MTS conversion in cultures to which VEGF was not added. Results were expressed as a percentage of the MTS conversion in control cultures to which only VEGF was added (Buttke et al., 1993).

[6] = system: A673 rhabdomyosarcoma; test: In vivo tumor growth inhibition, newly implanted A673; set-up: species or system nu/nu mice
Protocol: FIG. 3A and FIG. 3B. […] FIG. 3A: 1×10^7 NCI-H358 NSCLC cells were injected subcutaneously into nu/nu mice on day 0. FIG. 3B: 5×10^6 A673 rhabdomyosarcoma cells were injected subcutaneously into nu/nu mice on day 0. Mice were injected i.p. with the indicated IgG on day 1 and 2 times/week thereafter. […] Tumors were measured 2-3 times per week. Mean and standard error is shown for the duration of the study in FIG. 3A, while data for the last day of the study (day 26) is shown in FIG. 3B.
Nu/nu mice were injected subcutaneously with either 1×10^7 NCI-H358 NSCLC cells or 5×10^6 A673 rhabdomyosarcoma cells on day 0. […] The tumors were then measured twice per wk for a period of approximately six wk for the NCI-H358 bearing mice and four wk for the A673 bearing mice. Tumor volume was calculated according to the formula: volume=L×W×H, where L=length, W=width, H=height.

[7] = system: NCI-H358 NSCLC tumors; test: Treatment of established NCI-H358 xenografts (FIG. 4); assay type: in vivo, nu/nu mice; settings: 50-100 μg i.p. every 3-5 days, approximately 10 weeks
Protocol: FIG. 4. […] Mean tumor volume along with the SEM over 116 days is shown.
Male nu/nu mice bearing subcutaneous NCI-H358 tumors or HT1080 fibrosarcoma 200-400 mm^3 in size were injected i.p. with test or control antibodies. The NCI-H358 bearing mice were treated with 100 μg of antibodies per injection three times a week during the first week and twice a week during the second and third week. The mice were then switched to 50 μg per injection every five days. The HT1080 bearing mice were treated with 100 μg of the indicated antibody or saline every other day throughout the duration of the study. In both studies, mice were sacrificed when their tumors reached 2500 mm^3 in size or earlier if tumors began to ulcerate.
Doses were 50-100 μg every 3-5 days. […] In addition to measuring mean tumor volume (FIG. 4), photographs of the mice from each treatment group were also taken to show the differences in tumor size and appearance at the end of the study.

[8] = system: NCI-H358 tumors; test: Prolonged treatment of established NCI-H358 xenografts (FIG. 5A); assay type: in vivo, mice
Protocol: FIG. 5A and FIG. 5B. […] Treatments (T) were 100 μg of the IgG given i.p., except for the initial treatment that consisted of 500 μg of the IgG given i.v. Mean tumor volume along with the SEM is shown. At the end of the study (day 116), the mice were sacrificed and the tumors dissected out and weighed. […] The mice were treated every other day as indicated (T). […] Mean tumor volume along with the SE is shown.
In this study, spontaneous regressions were less pronounced. […] The 3E7 treated mice began treatment with a mean tumor volume of 428 mm^3 and rose to a volume of 1326 mm^3 after approximately 14 wk, an increase of […] in volume.

Chain of VEGF alone or VEGF associated with sFlk-1 (VEGF:Flk-1) (P15692 27-191 isoform P15692-4 limits assumed): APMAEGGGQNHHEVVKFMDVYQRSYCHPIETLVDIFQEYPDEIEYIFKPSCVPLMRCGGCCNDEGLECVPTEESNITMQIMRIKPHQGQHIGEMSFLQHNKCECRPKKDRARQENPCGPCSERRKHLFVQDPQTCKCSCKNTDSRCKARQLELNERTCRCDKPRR
Chain of denatured VEGF121 and VEGF165 (P15692 207-320 limits assumed): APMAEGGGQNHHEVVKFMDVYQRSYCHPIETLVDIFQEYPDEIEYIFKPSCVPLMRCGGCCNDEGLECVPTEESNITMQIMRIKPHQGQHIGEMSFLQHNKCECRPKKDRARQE

2C3: anti-VEGF monoclonal antibody, IgG2a, k, produced by hybridoma ATCC PTA 1595; blocks VEGF binding to VEGFR2 but not VEGFR1 [Clone 2C3]
Predominant Reactivity [1]: VEGF | Reactivity with denatured VEGF on western blots [2]: react | Endothelial Cell Staining, Hu Tumor (various) [3]: − | Endothelial Cell Staining, Mouse Tumor (3LL) [4]: − | Blocks VEGF-induced proliferation [5]: Yes | Final tumor volume, A673 ([6]; 100 μg i.p. 2 times per wk from day 1, controls approximately 1000 mm^3): approximately 150 mm^3 | Effect of lower doses on the growth of A673 tumors ([6]; 10 or 1 μg twice per wk): did slow the growth | Mean tumor volume at the end of the study, of the initial mean tumor volume [7]: 30% | Mean tumor volume after approximately 14 wk of treatment ([8]; 100 μg, at start 480 mm^3 (2C3), 428 mm^3 (3E7)): 84 mm^3 | Decrease in mean tumor volume ([8]; after approximately 14 wk): approximately 80% | Mean tumor weight at the end of the study ([8]; day 116): 0.054 g
